The results in this text go back to patent US20240158391A1, “DERIVATIVES OF 4-(IMIDAZO[1,2-A]PYRIDIN-3-YL)-N-(PYRIDIN-3-YL) PYRIMIDIN-2- AMINE FOR TREATING PROLIFERATIVE DISEASES AND CONDITIONS” (AUCENTRA THERAPEUTICS PTY LTD, priority 2019, published 2024).

For assay [1], the target named is CDK1/CyclinB (Homo sapiens, UniProt P06493). The assay is described as follows: ADP Glo kinase assay, CDK1/CyclinB. It counts as biochemical. Particulars: compound at 1 μM, read-out: Residual enzymatic activity (%) at 1 μM, CDK1 B. The protocol:
(§1) Test compounds are used in 1:3 serial dilutions for 10 concentrations (from 10-0.0005 μM) in 0.5% DMSO. […] The kinase reactions are run for optimised time period at room temperature and then the reaction is stopped by adding 5 μL of ADP Glo reagent.

The target in assay [2] is CDK2/CyclinA2 (Homo sapiens, UniProt P24941). The assay is described as follows: ADP Glo kinase assay, CDK2/CyclinA2. The assay is classed as biochemical. The settings on record: for remaining activity at 1 µM: compound at 1 μM, read-out: Residual enzymatic activity (%) at 1 μM, CDK2 A. As to the method:
as §1

The target in assay [3] is CDK7/CyclinH/Mat1 (Homo sapiens, UniProt P50613). Briefly: ADP Glo kinase assay, CDK7/CyclinH/Mat1. The assay is classed as biochemical. The settings on record: compound at 1 μM, read-out: Residual enzymatic activity (%) at 1 μM, CDK7 H. The protocol: as §1
Chain of CDK7/CyclinH/Mat1 (P50613 whole entry, species assumed): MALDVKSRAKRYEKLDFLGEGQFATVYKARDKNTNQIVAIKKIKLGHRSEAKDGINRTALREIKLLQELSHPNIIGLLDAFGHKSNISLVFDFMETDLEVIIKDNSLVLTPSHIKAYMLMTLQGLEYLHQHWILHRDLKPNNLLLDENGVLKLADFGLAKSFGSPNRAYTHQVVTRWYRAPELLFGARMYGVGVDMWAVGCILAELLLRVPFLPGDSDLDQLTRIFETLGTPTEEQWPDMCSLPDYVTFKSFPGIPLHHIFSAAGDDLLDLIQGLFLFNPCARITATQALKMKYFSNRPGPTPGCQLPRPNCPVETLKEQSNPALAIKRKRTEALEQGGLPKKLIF
Chain of CDK7/CyclinH/Mat1 (P51946 whole entry partner, species assumed): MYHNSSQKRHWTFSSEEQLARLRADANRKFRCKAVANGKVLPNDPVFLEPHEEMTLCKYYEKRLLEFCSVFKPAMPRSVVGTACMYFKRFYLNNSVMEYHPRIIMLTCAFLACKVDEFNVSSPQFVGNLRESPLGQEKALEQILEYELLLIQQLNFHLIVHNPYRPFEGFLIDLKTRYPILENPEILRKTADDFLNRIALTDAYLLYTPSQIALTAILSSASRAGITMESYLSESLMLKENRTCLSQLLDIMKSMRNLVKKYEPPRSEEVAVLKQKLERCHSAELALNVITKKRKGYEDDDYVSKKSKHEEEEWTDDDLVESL
Chain of CDK7/CyclinH/Mat1 (P51948 whole entry partner, species assumed): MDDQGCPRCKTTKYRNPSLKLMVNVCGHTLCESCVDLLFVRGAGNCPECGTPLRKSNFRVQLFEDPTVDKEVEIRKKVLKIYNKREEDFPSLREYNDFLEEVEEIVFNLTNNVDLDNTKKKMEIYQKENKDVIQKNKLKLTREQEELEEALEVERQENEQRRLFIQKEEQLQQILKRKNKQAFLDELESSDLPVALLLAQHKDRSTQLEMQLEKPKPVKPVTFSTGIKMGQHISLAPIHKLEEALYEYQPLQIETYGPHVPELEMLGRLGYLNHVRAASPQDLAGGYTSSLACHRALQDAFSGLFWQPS
In assay [4] the target is CDK9/CyclinT1 (Homo sapiens, UniProt P50750). Briefly: ADP Glo kinase assay, CDK9/CyclinT1. It counts as biochemical. The settings on record: CDK9/CyclinT1; Km ATP; read-out: Enzymatic inhibition, Ki, CDK9 T1. As to the method:
as §1

The target in assay [5] is CDK6/CyclinD3 (Homo sapiens, UniProt Q00534). Briefly: ADP Glo kinase assay, CDK6/CyclinD3. It counts as biochemical. The settings on record: compound at 1 μM, read-out: Residual enzymatic activity (%) at 1 μM, CDK6 D3. As to the method:
as §1

Assay [6] has as its target T1, FLT3-ITD (Homo sapiens, UniProt P36888).
T1 sequence (P36888 1-993): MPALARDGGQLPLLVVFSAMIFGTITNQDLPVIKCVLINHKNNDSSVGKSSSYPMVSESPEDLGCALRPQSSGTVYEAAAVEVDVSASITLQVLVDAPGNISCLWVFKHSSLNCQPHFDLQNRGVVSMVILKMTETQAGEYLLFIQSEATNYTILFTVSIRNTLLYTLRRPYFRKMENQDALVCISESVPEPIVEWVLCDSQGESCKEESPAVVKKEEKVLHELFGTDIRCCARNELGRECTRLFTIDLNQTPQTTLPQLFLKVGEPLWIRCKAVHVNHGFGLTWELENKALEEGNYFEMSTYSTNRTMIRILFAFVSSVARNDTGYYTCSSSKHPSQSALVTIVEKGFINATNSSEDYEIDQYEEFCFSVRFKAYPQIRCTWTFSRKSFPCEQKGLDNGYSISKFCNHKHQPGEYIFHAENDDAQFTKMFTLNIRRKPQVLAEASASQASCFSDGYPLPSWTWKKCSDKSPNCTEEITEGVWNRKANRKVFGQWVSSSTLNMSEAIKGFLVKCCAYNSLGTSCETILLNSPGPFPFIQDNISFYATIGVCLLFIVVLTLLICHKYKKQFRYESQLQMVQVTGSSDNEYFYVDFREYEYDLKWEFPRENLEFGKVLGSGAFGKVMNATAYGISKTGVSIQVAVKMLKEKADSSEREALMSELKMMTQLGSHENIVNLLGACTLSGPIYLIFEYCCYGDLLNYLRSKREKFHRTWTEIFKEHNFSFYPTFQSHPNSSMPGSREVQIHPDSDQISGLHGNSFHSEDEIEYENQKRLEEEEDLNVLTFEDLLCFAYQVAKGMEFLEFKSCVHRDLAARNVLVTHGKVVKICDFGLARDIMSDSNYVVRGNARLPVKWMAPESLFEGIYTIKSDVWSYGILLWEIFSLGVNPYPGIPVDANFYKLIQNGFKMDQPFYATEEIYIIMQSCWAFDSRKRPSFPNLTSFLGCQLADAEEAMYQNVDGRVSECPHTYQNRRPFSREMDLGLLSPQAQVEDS
Briefly: ADP Glo kinase assay, FLT3-ITD. The assay is classed as biochemical. The settings on record: Km ATP 100 μM, read-out: Enzymatic inhibition, Ki, FLT3-ITD. As to the method:
as §1

The subject of assay [7] is MV-4-11. Briefly: Proliferation assay (resazurin, leukemia cell lines), MV-4-11. The assay is classed as cell-based. Particulars: Homo sapiens, MV4-11, read-out: 72 h Growth inhibition GI50, MV-4-11 cells. The source says: The following compounds were used as comparators.

Chain of CDK1/CyclinB (P06493 whole entry, species assumed): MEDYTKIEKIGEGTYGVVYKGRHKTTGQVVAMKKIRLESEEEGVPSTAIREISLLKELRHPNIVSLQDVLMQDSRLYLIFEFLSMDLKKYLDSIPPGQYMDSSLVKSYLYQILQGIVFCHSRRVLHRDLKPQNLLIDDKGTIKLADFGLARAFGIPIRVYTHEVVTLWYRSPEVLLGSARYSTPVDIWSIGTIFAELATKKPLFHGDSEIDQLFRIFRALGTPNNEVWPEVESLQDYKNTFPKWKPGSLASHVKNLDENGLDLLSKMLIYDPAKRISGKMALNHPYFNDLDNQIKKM
Chain of CDK1/CyclinB (P14635 whole entry partner, species assumed): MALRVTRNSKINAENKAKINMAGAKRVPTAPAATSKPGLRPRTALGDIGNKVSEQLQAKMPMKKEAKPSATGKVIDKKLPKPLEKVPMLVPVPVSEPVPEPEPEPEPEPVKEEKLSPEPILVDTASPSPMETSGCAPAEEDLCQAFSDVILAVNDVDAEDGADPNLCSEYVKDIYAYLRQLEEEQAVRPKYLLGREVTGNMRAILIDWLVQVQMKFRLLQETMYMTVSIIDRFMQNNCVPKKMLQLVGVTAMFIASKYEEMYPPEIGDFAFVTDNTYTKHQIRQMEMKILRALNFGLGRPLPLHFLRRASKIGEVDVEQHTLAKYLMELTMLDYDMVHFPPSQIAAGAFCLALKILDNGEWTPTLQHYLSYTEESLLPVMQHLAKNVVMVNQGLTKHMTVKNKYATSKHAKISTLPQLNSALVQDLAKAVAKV
Chain of CDK9/CyclinT1 (P50750 whole entry, species assumed): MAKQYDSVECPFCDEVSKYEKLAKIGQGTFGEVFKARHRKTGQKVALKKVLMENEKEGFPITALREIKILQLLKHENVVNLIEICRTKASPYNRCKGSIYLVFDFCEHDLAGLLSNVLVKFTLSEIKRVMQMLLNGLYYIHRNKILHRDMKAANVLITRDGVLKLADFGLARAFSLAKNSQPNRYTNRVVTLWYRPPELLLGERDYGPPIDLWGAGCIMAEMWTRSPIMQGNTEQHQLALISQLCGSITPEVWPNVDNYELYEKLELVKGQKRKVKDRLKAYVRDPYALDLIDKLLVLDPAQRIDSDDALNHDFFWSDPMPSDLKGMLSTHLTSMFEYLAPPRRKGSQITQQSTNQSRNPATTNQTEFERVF
Chain of CDK9/CyclinT1 (O60563 whole entry partner, species assumed): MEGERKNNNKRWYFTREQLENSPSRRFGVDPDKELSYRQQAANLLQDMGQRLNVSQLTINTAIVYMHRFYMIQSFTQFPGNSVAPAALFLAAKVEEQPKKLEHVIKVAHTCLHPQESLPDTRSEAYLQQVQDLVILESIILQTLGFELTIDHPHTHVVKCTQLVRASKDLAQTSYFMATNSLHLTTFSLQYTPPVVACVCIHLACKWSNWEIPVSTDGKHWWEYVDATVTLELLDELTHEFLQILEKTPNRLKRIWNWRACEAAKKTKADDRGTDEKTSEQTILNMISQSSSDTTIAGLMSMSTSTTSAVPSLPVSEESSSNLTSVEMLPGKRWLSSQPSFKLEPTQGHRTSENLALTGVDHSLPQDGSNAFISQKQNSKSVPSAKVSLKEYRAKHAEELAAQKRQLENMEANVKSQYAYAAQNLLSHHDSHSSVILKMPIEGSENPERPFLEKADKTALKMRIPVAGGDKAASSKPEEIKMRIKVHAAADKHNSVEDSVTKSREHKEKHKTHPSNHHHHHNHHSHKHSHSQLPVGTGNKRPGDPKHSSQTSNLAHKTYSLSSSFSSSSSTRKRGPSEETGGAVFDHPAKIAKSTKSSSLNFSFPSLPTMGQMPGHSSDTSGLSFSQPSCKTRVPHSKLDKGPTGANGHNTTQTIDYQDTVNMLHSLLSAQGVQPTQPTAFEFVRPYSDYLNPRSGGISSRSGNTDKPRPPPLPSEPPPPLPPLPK
Chain of CDK6/CyclinD3 (Q00534 whole entry, species assumed): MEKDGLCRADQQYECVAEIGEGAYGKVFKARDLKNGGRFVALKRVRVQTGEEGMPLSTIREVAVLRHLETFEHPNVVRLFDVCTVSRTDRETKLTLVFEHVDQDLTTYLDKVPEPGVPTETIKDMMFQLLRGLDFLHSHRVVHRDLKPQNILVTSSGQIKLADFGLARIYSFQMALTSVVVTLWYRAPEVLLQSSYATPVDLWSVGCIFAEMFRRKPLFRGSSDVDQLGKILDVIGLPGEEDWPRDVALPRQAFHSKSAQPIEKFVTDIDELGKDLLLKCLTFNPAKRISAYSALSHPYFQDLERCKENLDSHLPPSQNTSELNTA
Chain of CDK6/CyclinD3 (P30281 whole entry partner, species assumed): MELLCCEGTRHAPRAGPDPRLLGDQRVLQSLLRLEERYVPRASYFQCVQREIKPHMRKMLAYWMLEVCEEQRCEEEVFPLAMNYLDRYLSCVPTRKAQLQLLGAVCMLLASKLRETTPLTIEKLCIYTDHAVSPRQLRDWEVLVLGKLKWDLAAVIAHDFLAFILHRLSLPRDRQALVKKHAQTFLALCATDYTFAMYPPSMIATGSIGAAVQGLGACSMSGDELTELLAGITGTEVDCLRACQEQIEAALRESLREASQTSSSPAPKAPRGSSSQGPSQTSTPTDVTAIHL

Consider `CN1CCN(c2ccc(Nc3nccc(-c4cnc5ccc(-c6ccccc6)cn45)n3)nc2)CC1` [Comparator compound A, N-(5-(4-methylpiperazin-1-yl)pyridin-2-yl)-4-(6-phenylimidazo[1,2-a]pyridin-3-yl)pyrimidin-2-amine, reference compound], for which the remaining activity at 1 µM in assay [1] stood at 87%; in assay [2], 86%; in assay [3] it was 66%. The Ki in assay [4] worked out at 83 nM.

On to `CS(=O)(=O)N1CCN(c2ccc(Nc3nccc(-c4cnc5ccc(-c6cc7ccccc7o6)cn45)n3)cn2)CC1` [Compound 52, 4-(6-(Benzofuran-2-yl)imidazo[1,2-a]pyridin-3-yl)-N-(6-(4-(methylsulfonyl)piperazin-1-yl)pyridin-3-yl)pyrimidin-2-amine], for which the remaining activity at 1 µM in assay [1] was determined as 62%; in assay [2], 97%; in assay [5], 100%; in assay [3] it was 99%. The inhibition constant (Ki) is more than 500 nM in assay [4] and 57 nM in assay [6]. Also, the 50% growth inhibitory concentration (GI50) in assay [7] worked out at 23 nM.

With `CC(C)N1CCN(c2ccc(Nc3nccc(-c4cnc5ccc(-c6cncnc6)cn45)n3)cn2)CC1` [Compound 53, N-(6-(4-Isopropylpiperazin-1-yl)pyridin-3-yl)-4-(6-(pyrimidin-5-yl)imidazo[1,2-a]pyridin-3-yl)pyrimidin-2-amine], the remaining activity at 1 µM in assay [1] amounted to 71%; in assay [2] it was 75%; in assay [5] it was 66%; in assay [3] it was 56%. The Ki in assay [4] was determined as 92 nM; in assay [6], 71 nM. For the same molecule, in assay [7], the concentration for 50% growth inhibition (GI50) is 46 nM.

As for `CC(C)N1CCN(c2ccc(Nc3nccc(-c4cnc5ccc(-c6ccc(F)nc6)cn45)n3)cn2)CC1` [Compound 55, 4-(6-(6-Fluoropyridin-3-yl)imidazo[1,2-a]pyridin-3-yl)-N-(6-(4-isopropylpiperazin-1-yl)-pyridin-3-yl)pyrimidin-2-amine], the remaining activity at 1 µM stood at 50% in assay [1], 62% in assay [2], 55% in assay [5] and 38% in assay [3]. Besides, the Ki turned out to be 36 nM in assay [4] and 28 nM in assay [6]. Moreover, the concentration for 50% growth inhibition (GI50) in assay [7] is 116 nM.

Regarding `CS(=O)(=O)N1CCN(c2ccc(Nc3nccc(-c4cnc5ccc(-c6ccc(F)nc6)cn45)n3)cn2)CC1` [Compound 56, 4-(6-(6-Fluoropyridin-3-yl)imidazo[1,2-a]pyridin-3-yl)-N-(6-(4-(methylsulfonyl)piperazin-1-yl)pyridin-3-yl)pyrimidin-2-amine], the remaining activity at 1 µM in assay [1] is 78%; in assay [2], 36%; in assay [5] it was 96%; in assay [3], 94%. Moreover, the Ki in assay [4] was found to be 380 nM; in assay [6], 84 nM. The concentration for 50% growth inhibition (GI50) in assay [7] worked out at 23 nM.

`Brc1ccc2ncc(-c3ccnc(Nc4ccc(NC5CCOCC5)nc4)n3)n2c1` [Compound 57, N^5-(4-(6-Bromoimidazo[1,2-a]pyridin-3-yl)pyrimidin-2-yl)-N^2-(tetrahydro-2H-pyran-4-yl)pyridine-2,5-diamine]: the remaining activity at 1 µM in assay [1] turned out to be 57%; in assay [5], 93%; in assay [3] it was 88%. The Ki in assay [2] (Km ATP, read-out: Enzymatic inhibition, Ki, CDK2 A) came out at 56 nM; in assay [4], 103 nM; in assay [6], 40 nM. Moreover, the GI50 in assay [7] is 30 nM.

`CCS(=O)(=O)N1CCN(c2ccc(Nc3nccc(-c4cnc5ccc(-c6ccccc6)cn45)n3)cn2)CC1` [Compound 60, N-(6-(4-(Ethylsulfonyl)piperazin-1-yl)pyridin-3-yl)-4-(6-phenylimidazo[1,2-a]pyridin-3-yl)pyrimidin-2-amine]: the remaining activity at 1 µM in assay [1] came out at 61%; in assay [2], 91%; in assay [5], 100%; in assay [3] it was 100%. The Ki in assay [4] turned out to be 509 nM; in assay [6], 142 nM. Also, the GI50 in assay [7] amounted to 20 nM.

With `CCS(=O)(=O)N1CCN(c2ccc(Nc3nccc(-c4cnc5ccc(-c6ccc(F)nc6)cn45)n3)cn2)CC1` [Compound 61, N-(6-(4-(Ethylsulfonyl)piperazin-1-yl)pyridin-3-yl)-4-(6-(6-fluoropyridin-3-yl)imidazo[1,2-a]pyridin-3-yl)pyrimidin-2-amine], the remaining activity at 1 µM in assay [1] is 38%; in assay [2] it was 71%; in assay [5] it was 72%; in assay [3] it was 57%. The Ki was 428 nM in assay [4] and 149 nM in assay [6]. Also, the GI50 in assay [7] was found to be 20 nM.

`O=C(c1ccco1)N1CCN(c2ccc(Nc3nccc(-c4cnc5ccc(Br)cn45)n3)cn2)CC1` [Compound 62, (4-(5-((4-(6-Bromoimidazo[1,2-a]pyridin-3-yl)pyrimidin-2-yl)amino)pyridin-2-yl)piperazin-1-yl)(furan-2-yl)methanone]: the remaining activity at 1 µM is 39% in assay [1], 57% in assay [2], 76% in assay [5] and 60% in assay [3]. Further, the inhibition constant Ki amounted to 541 nM in assay [4] and 188 nM in assay [6]. In addition, in assay [7], the GI50 is 52 nM.

As for `O=C(c1ccco1)N1CCN(c2ccc(Nc3nccc(-c4cnc5ccc(-c6ccccc6)cn45)n3)cn2)CC1` [Compound 63, Furan-2-yl(4-(5-((4-(6-phenylimidazo[1,2-a]pyridin-3-yl)pyrimidin-2-yl)amino)pyridin-2-yl)piperazin-1-yl)methanone], the remaining activity at 1 µM in assay [1] was found to be 26%; in assay [2], 49%; in assay [5], 100%; in assay [3], 93%. Besides, the inhibition constant (Ki) in assay [4] came to 242 nM; in assay [6], 82 nM. Moreover, in assay [7], the GI50 worked out at 25 nM.

With `COc1cc(F)cc(-c2ccc3ncc(-c4ccnc(Nc5ccc(N6CCN(C)CC6)nc5)n4)n3c2)c1` [Compound 64, 4-(6-(3-Fluoro-5-methoxyphenyl)imidazo[1,2-a]pyridin-3-yl)-N-(6-(4-methylpiperazin-1-yl)pyridin-3-yl)pyrimidin-2-amine], the remaining activity at 1 µM in assay [1] stood at 57%; in assay [2] it was 90%; in assay [5] it was 66%; in assay [3] it was 38%. Besides, the Ki in assay [4] was 26 nM; in assay [6], 6 nM. The 50% growth inhibitory concentration (GI50) in assay [7] turned out to be 2 nM.

On to `CN(C)c1ccc(Nc2nccc(-c3cnc4ccc(-c5ccccc5)cn34)n2)cn1` [Compound 66, N^2,N^2-Dimethyl-N^5-(4-(6-phenylimidazo[1,2-a]pyridin-3-yl)pyrimidin-2-yl)pyridine-2,5-diamine], for which the remaining activity at 1 µM in assay [1] amounted to 76%; in assay [2], 73%; in assay [5], 79%; in assay [3], 64%. Moreover, the Ki in assay [4] worked out at 468 nM; in assay [6], 220 nM. For the same molecule, the concentration for 50% growth inhibition (GI50) in assay [7] turned out to be 17 nM.
